# How the values were obtained:
# Format in all cases: in vivo
# [1] = test system: Ipomoea hederacea (IPOHE); experiment: Post-emergence glasshouse herbicide test; conditions: post-emergence (sprayed after 8 days cultivation), 1000 g/h, evaluated after 13 days, five point scale
# Method: (§1) Seeds of a variety of test species are sown in standard soil in pots (Lolium perenne (LOLPE), Solanum nigrum (SOLNI), Amaranthus retoflexus (AMARE), Setaria faberi (SETFA), Echinochloa crus-galli (ECHCG), Ipomoea hederacea (IPOHE)). After cultivation for one day (pre-emergence) or after 8 days cultivation (post-emergence) under controlled conditions in a glasshouse (at 24/16° C., day/night; 14 hours light; 65% humidity), the plants are sprayed with an aqueous spray solution derived from the formulation of the technical active ingredient in acetone/water (50:50) solution containing 0.5% Tween 20 (polyoxyethelyene sorbitan monolaurate, CAS RN 9005-64-5). Compounds are applied at 1000 g/h. The test plants are then grown in a glasshouse under controlled conditions in a glasshouse (at 24/16° C., day/night; 14 hours light; 65% humidity) and watered twice daily. After 13 days for pre and post-emergence, the test is evaluated for the percentage damage caused to the plant. The biological activities are shown in the following table on a five point scale (5=80-100%; 4=60-79%; 3=40-59%; 2=20-39%; 1=0-19%).
# [2] = test system: Amaranthus retoflexus (AMARE); experiment: Post-emergence glasshouse herbicide test; conditions: post-emergence (sprayed after 8 days cultivation), 1000 g/h, evaluated after 13 days, five point scale
# Method: as §1
# Solanum nigrum (SOLNI) [3] = experiment: Post-emergence glasshouse herbicide test; conditions: post-emergence (sprayed after 8 days cultivation), 1000 g/h, evaluated after 13 days, five point scale
# Method: as §1
# Lolium perenne (LOLPE) [4] = experiment: Post-emergence glasshouse herbicide test; conditions: post-emergence (sprayed after 8 days cultivation), 1000 g/h, evaluated after 13 days, five point scale
# Method: as §1
# [5] = test system: Echinochloa crus-galli (ECHCG); experiment: Post-emergence glasshouse herbicide test; conditions: post-emergence (sprayed after 8 days cultivation), 1000 g/h, evaluated after 13 days, five point scale
# Method: as §1
# Setaria faberi (SETFA) [6] = experiment: Post-emergence glasshouse herbicide test; conditions: post-emergence (sprayed after 8 days cultivation), 1000 g/h, evaluated after 13 days, five point scale
# Method: as §1
# [7] = test system: Ipomoea hederacea (IPOHE); experiment: Pre-emergence glasshouse herbicide test; conditions: pre-emergence (sprayed after one day cultivation), 1000 g/h, evaluated after 13 days, five point scale
# Method: as §1
# [8] = test system: Amaranthus retoflexus (AMARE); experiment: Pre-emergence glasshouse herbicide test; conditions: pre-emergence (sprayed after one day cultivation), 1000 g/h, evaluated after 13 days, five point scale
# Method: as §1
# Solanum nigrum (SOLNI) [9] = experiment: Pre-emergence glasshouse herbicide test; conditions: pre-emergence (sprayed after one day cultivation), 1000 g/h, evaluated after 13 days, five point scale
# Method: as §1
# Lolium perenne (LOLPE) [10] = experiment: Pre-emergence glasshouse herbicide test; conditions: pre-emergence (sprayed after one day cultivation), 1000 g/h, evaluated after 13 days, five point scale
# Method: as §1
# [11] = test system: Echinochloa crus-galli (ECHCG); experiment: Pre-emergence glasshouse herbicide test; conditions: pre-emergence (sprayed after one day cultivation), 1000 g/h, evaluated after 13 days, five point scale
# Method: as §1
# Setaria faberi (SETFA) [12] = experiment: Pre-emergence glasshouse herbicide test; conditions: pre-emergence (sprayed after one day cultivation), 1000 g/h, evaluated after 13 days, five point scale
# Method: as §1
SMILES,"percentage damage caused to the plant, IPOHE, POST Application [1]","percentage damage caused to the plant, AMARE, POST Application [2]","percentage damage caused to the plant, SOLNI, POST Application (Solanum nigrum (SOLNI) [3])","percentage damage caused to the plant, LOLPE, POST Application (Lolium perenne (LOLPE) [4])","percentage damage caused to the plant, ECHCG, POST Application [5]","percentage damage caused to the plant, SETFA, POST Application (Setaria faberi (SETFA) [6])","percentage damage caused to the plant, IPOHE, PRE Application [7]","percentage damage caused to the plant, AMARE, PRE Application [8]","percentage damage caused to the plant, SOLNI, PRE Application (Solanum nigrum (SOLNI) [9])","percentage damage caused to the plant, LOLPE, PRE Application (Lolium perenne (LOLPE) [10])","percentage damage caused to the plant, ECHCG, PRE Application [11]","percentage damage caused to the plant, SETFA, PRE Application (Setaria faberi (SETFA) [12])"
COc1ccc(-c2c(Cl)c(C(=O)Nc3nnnn3C)nn(C)c2=O)cc1OC [Compound 1.017],5 (5=80-100%),5 (5=80-100%),5 (5=80-100%),5 (5=80-100%),5 (5=80-100%),5 (5=80-100%),5 (5=80-100%),5 (5=80-100%),5 (5=80-100%),5 (5=80-100%),5 (5=80-100%),5 (5=80-100%)
Cn1nnnc1NC(=O)c1nn(C)c(=O)c(-c2ccc(Cl)c(Cl)c2)c1Cl [Compound 1.019],4 (4=60-79%),3 (3=40-59%),5 (5=80-100%),5 (5=80-100%),5 (5=80-100%),5 (5=80-100%),3 (3=40-59%),5 (5=80-100%),5 (5=80-100%),5 (5=80-100%),5 (5=80-100%),5 (5=80-100%)
Cc1ccc(C)c(-c2c(Cl)c(C(=O)Nc3nnnn3C)nn(C)c2=O)c1 [Compound 1.020],5 (5=80-100%),5 (5=80-100%),5 (5=80-100%),5 (5=80-100%),5 (5=80-100%),5 (5=80-100%),5 (5=80-100%),5 (5=80-100%),5 (5=80-100%),5 (5=80-100%),5 (5=80-100%),5 (5=80-100%)
Cn1nnnc1NC(=O)c1nn(C)c(=O)c(-c2ccc(C(F)(F)F)cc2)c1Cl [Compound 1.023],2 (2=20-39%),2 (2=20-39%),5 (5=80-100%),5 (5=80-100%),5 (5=80-100%),5 (5=80-100%),2 (2=20-39%),4 (4=60-79%),5 (5=80-100%),5 (5=80-100%),5 (5=80-100%),5 (5=80-100%)
Cn1nnnc1NC(=O)c1nn(C)c(=O)c(-c2cccc(C(F)(F)F)c2)c1Cl [Compound 1.030],4 (4=60-79%),5 (5=80-100%),5 (5=80-100%),5 (5=80-100%),5 (5=80-100%),5 (5=80-100%),2 (2=20-39%),5 (5=80-100%),5 (5=80-100%),5 (5=80-100%),5 (5=80-100%),5 (5=80-100%)
CCOc1c(C(=O)Nc2nnnn2C)nn(C)c(=O)c1-c1ccccc1 [Compound 1.031],5 (5=80-100%),5 (5=80-100%),5 (5=80-100%),4 (4=60-79%),5 (5=80-100%),5 (5=80-100%),5 (5=80-100%),5 (5=80-100%),5 (5=80-100%),3 (3=40-59%),5 (5=80-100%),5 (5=80-100%)
CCOc1c(C(=O)Nc2nnnn2C)nn(C)c(=O)c1-c1ccc(Cl)c(Cl)c1 [Compound 1.032],4 (4=60-79%),5 (5=80-100%),5 (5=80-100%),4 (4=60-79%),5 (5=80-100%),5 (5=80-100%),4 (4=60-79%),5 (5=80-100%),5 (5=80-100%),4 (4=60-79%),5 (5=80-100%),5 (5=80-100%)
COc1cccc(-c2c(Cl)c(C(=O)Nc3nnnn3C)nn(C)c2=O)c1 [Compound 1.036],4 (4=60-79%),5 (5=80-100%),5 (5=80-100%),5 (5=80-100%),5 (5=80-100%),5 (5=80-100%),2 (2=20-39%),5 (5=80-100%),5 (5=80-100%),5 (5=80-100%),5 (5=80-100%),5 (5=80-100%)

# From patent US9701662B2, “Herbicidal compounds” (Syngenta Participations AG, priority 2014, dated 2017)
